{
  "source": "patent US11324752B2",
  "about": "“Imeglimin for preventing and/or treating hepatocellular carcinoma” (ERICARE, priority 2017, dated 2022)",
  "key": {"HepG2 [1]": {"tested_on": "HepG2", "test": "MTS Promega cell proliferation assay, HepG2", "assay_type": "cell-based, human", "settings": "period of 6 days", "description": "(§1) In vitro anti-proliferative effect of imeglimin compared to that of metformin in 2 models of human hepatocellular carcinoma (HCC). Determination of IC50 (median inhibitory concentration) by the MTS Promega™ cell proliferation assay (CellTiter 96™ AQueous Nonradioactive Cell Proliferation Assay Kit).\n(§2) Different mM concentrations (0, 0.1, 0.25, 0.5, 1.0, 2.5, 5.0, 7.5, 10, 25, 50, 100) of imeglimin and metformin were tested in vitro on two human CHC cell lines, HepG2 and HuH7, over a period of 6 days."}, "HuH7 [2]": {"tested_on": "HuH7", "test": "MTS Promega cell proliferation assay, HuH7", "assay_type": "cell-based, human", "description": "as §1, §2"}, "HepG2 line": {"tested_on": "HepG2 line", "settings": "for growth in volume of grafted tumors compared to placebo control group: FIG. 1", "description": "In vivo anti-tumor activity of imeglimin compared to that of metformin, alone or in combination with sorafenib, on subcutaneous xenograft models of the CHC HepG2 line in 6 week old female mice with a BALB/c nude genetic background (Harlan).\nTwo million cells of the HepG2 line are injected into the left side of each mouse in a volume of 100 μl (50 μl PBS-50 μl matrigel). Mice developing a palpable tumor are randomized into 7 groups of\ntreatment of 14 mice according to the following design: placebo, imeglimin 75 mg/kg/day, imeglimin 150 mg/kg/day, metformin 75 mg/kg/day, sorafenib 40 mg/kg/day, imeglimin 75 mg/kg/day+sorafenib 40 mg/kg/day, metformin 75 mg/kg/day+sorafenib 40 mg/kg/day.\nMetformin and imeglimin are administered in drinking water, sorafenib is administered by oral gavage. Treatment begins on the day of randomization.\nThe treatments were administered for 63 days. The evolution curves of the tumor volumes, as well as those of the weight of the animals, were analyzed during this period. The appearance of tumors and organs has been the subject of a macroscopic anatomic-pathological analysis."}, "[3]": {"settings": "STZ diabetic rat; 35 days; 50 and 100 mg/kg/day; cited from earlier work"}, "[4]": {"settings": "seven Phase 1 studies, 216 subjects; cited from earlier work"}, "[5]": {"settings": "seven Phase 2 studies, 611 patients; cited from earlier work"}, "[6]": {"settings": "cited from earlier work"}, "mitochondrial I complex": {"tested_on": "mitochondrial I complex", "settings": "cited from earlier work"}, "HepG2 [7]": {"tested_on": "HepG2", "settings": "in vitro; cited from earlier work"}, "HuH7 [8]": {"tested_on": "HuH7", "settings": "in vitro; cited from earlier work"}, "human liver tumor cells": {"tested_on": "human liver tumor cells", "settings": "immunocompromised mice; cited from earlier work"}, "[9]": {"settings": "in particular hepatocellular carcinoma; cited from earlier work"}, "hepatocellular carcinoma": {"tested_on": "hepatocellular carcinoma", "settings": "cited from earlier work"}, "[10]": {"settings": "1500 mg twice daily, similar to 850 mg of metformin twice daily"}},
  "note": "Entries after “also recorded” stand apart in the source; their conditions may differ. Structures can show the parent of a compound that is named as a salt.",
  "data": [
    {"smiles": "C[C@H]1N=C(N(C)C)N=C(N)N1", "note": "[imeglimin, (6R)-(+)-4-dimethylamino-2-imino-6-methyl-1,2,5,6-tetrahydro-1,3,5-triazine hydrochloride]", "values": [
      {"measurement": "change of inhibitory effect with time", "setting": "HepG2 [1]", "value": "increases with time"},
      {"measurement": "effect on HuH7 line compared with HepG2 line", "setting": "HuH7 [2]", "value": "much more marked"},
      {"measurement": "change of inhibitory effect with time", "setting": "HuH7 [2]; period of 6 days", "value": "increases with time"},
      {"measurement": "dose effect on tumor growth", "setting": "HepG2 line; 75 mg/kg/day to 150 mg/kg/day, hydrochloride", "value": "dose-dependent inhibitory effect on tumor growth; also recorded: increases with the doubling of doses"},
      {"measurement": "mean weight of the animals", "setting": "HepG2 line; 63 days of treatment", "value": "did not change"},
      {"measurement": "toxicity of treatment", "setting": "HepG2 line; 63 days of treatment", "value": "did not prove to be toxic"},
      {"measurement": "growth in volume of grafted tumors compared to placebo control group", "setting": "HepG2 line; 63 days of treatment", "value": "slow down the growth in volume of grafted tumors"},
      {"measurement": "effect on tumor volume compared with metformin", "setting": "HepG2 line; imeglimin 150 mg/kg/day vs metformin 75 mg/kg/day (equipotent doses), hydrochloride", "value": "higher than metformin; also recorded: significantly greater than that of metformin"},
      {"measurement": "effect on tumor volume compared with sorafenib", "setting": "HepG2 line; imeglimin 150 mg/kg/day vs sorafenib 40 mg/kg/day, hydrochloride", "value": "not significantly different from sorafenib; also recorded: does not have a significantly different effect"},
      {"measurement": "HbA1c", "setting": "[3]", "value": "significantly decreased"},
      {"measurement": "fasting blood glucose", "setting": "[3]", "value": "significantly decreased"},
      {"measurement": "administration safety and tolerance", "setting": "[4]", "value": "excellent administration safety and tolerance"},
      {"measurement": "tolerance and safety of use", "setting": "[5]", "value": "excellent tolerance and safety of use similar to those of the placebo"},
      {"measurement": "fasting glucose levels", "setting": "[6]; [10]", "value": "improves"},
      {"measurement": "hemoglobin A1c", "setting": "[6]; [10]", "value": "improves"},
      {"measurement": "tolerance profile compared with metformin", "setting": "[6]; diabetic patients", "value": "greater than that of metformin"},
      {"measurement": "inhibition of mitochondrial I complex", "setting": "mitochondrial I complex", "value": "does not inhibit"}
    ]},
    {"smiles": "CN(C)C(=N)N=C(N)N", "note": "[metformin]", "values": [
      {"measurement": "growth in volume of grafted tumors compared to placebo control group", "setting": "HepG2 line; 63 days of treatment", "value": "slow down the growth in volume of grafted tumors"},
      {"measurement": "cell growth inhibitory activity", "setting": "HepG2 [7]", "value": "has cell growth inhibitory activity"},
      {"measurement": "cell growth inhibitory activity", "setting": "HuH7 [8]", "value": "has cell growth inhibitory activity"},
      {"measurement": "anti-cancer activity", "setting": "human liver tumor cells", "value": "exhibits anti-cancer activity"},
      {"measurement": "cancers in treated patients with type 2 diabetes versus other anti-diabetic drugs", "setting": "[9]", "value": "fewer cancers"}
    ]},
    {"smiles": "CNC(=O)c1cc(Oc2ccc(NC(=O)Nc3ccc(Cl)c(C(F)(F)F)c3)cc2)ccn1", "note": "[sorafenib, reference compound]", "values": [
      {"measurement": "growth in volume of grafted tumors compared to placebo control group", "setting": "HepG2 line; 63 days of treatment", "value": "slow down the growth in volume of grafted tumors"},
      {"measurement": "anti-angiogenic effect, observation at sacrifice", "setting": "HepG2 line; sorafenib 40 mg/kg/day alone or with imeglimin 75 mg/kg/day", "value": "exerts its anti-angiogenic properties"},
      {"measurement": "median survival time", "setting": "hepatocellular carcinoma; patients with advanced hepatocellular carcinoma", "value": 10.7, "unit": "months"},
      {"measurement": "most important side effects", "setting": "hepatocellular carcinoma; sorafenib group", "value": "Diarrhea, weight loss, hand-foot syndrome and hypophosphatemia"}
    ]}
  ]
}
